Patent US20210395210A1, “INHIBITION OF BACTERIAL CHAPERONIN SYSTEMS” (THE TRUSTEES OF INDIANA UNIVERSITY, priority 2018, published 2021)
Where two headings read alike, the source gives them in different places.

Experiments:
[1] = molecular target: T1, native MDH (Sus scrofa, UniProt P00346); assay: Counter-screen for inhibition of native MDH enzymatic activity; assay type: biochemical, pig
T1 construct: soluble pig heart MDH from Roche, product #10127248001; purchased Roche 10127248001; host or cells: pig heart
T1 sequence (P00346 25-338): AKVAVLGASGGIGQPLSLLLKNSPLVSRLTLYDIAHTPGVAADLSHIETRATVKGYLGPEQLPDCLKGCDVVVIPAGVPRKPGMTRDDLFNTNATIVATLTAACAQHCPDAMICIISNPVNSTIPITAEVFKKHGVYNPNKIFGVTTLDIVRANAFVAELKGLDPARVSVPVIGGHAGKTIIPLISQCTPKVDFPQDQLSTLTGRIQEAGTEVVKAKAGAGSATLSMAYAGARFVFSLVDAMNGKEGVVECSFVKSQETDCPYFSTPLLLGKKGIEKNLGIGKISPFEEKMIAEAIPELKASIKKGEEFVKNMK
Experimental: Reagent Preparations & Assay Protocol: This assay was performed as described above for the GroEL/ES-dMDH refolding assay; however, the assay protocol differed in the sequence of compound addition to the assay plates. The refolding reactions were allowed to proceed for 45 min at 37° C. in the absence of test compounds (complete refolding of MDH occurs), then quenched with the EDTA stock. Compounds were then pin-transferred into the plates after the EDTA quenching step; thus, compounds effects are only possible by inhibiting the fully-refolded MDH reporter substrate. […] A340 nm measurements were recorded at 0.5 minutes (start point) and at successive time points until the amount of NADH consumed reached ˜90% (end point, generally between 20-35 minutes). Compounds were tested in 8-point, 3-fold dilution series (62.5 μM to 29 nM during the reporter reaction) in clear, flat-bottom 384-well microtiter plates. DMSO was used as a negative control, and previously discovered native MDH inhibitors were used as positive controls. […] Results presented represent the averages of IC50 values obtained from at least quadriplicate (duplicate of duplicate) replicates.

[2] = tested on: Drug sensitive Staphylococcus aureus (ATCC 25923); assay: Bacterial proliferation assay, drug sensitive S. aureus; assay type: cell-based
From the text: (§1) Bacterial Strains: Enterococcus faecium—(Orla-Jensen) Schleifer and Kilpper-Balz strain NCTC 7171 (ATCC 19434); Drug sensitive Staphylococcus aureus—Rosenbranch strain Seattle 1945 (ATCC 25923); Methicillin resistant S. aureus (MRSA)—Rosenbach strain HPV107 (ATCC BAA-44); Klebsiella Pneumonia—(Schroeter) Trevisan strain NCTC 9633 (ATCC 13883); Acinetobacter baumannii—Bouvet and Grimont strain 2208 (ATCC 19606); Pseudomonas aeruginosa—(Schroeter) Migula strain NCTC 10332 (ATCC 10145); Enterobacter cloacae—E. cloacae, subsp. cloacae (Jordan) Hormaeche and Edwards strain CDC 442-68 (ATCC 13047).
(§2) Growth Media: All bacteria were grown in Brain Heart Infusion (BHI) broth/agar (Becton, Dickinson and Company). All liquid cultures were grown in BHI media supplemented with 25 mg/L Ca^2+ and 12.5 mg/L Mg^2+ to mimic free physiological concentrations of these cations. A 10 mg/mL Ca^2+ stock solution was prepared by dissolving 3.68 g of CaCl2.2H2O in 100 mL of deionized water, and a 10 mg/mL Mg^2+ stock solution was prepared by dissolving 8.36 g of MgCl2.6H2O in 100 mL deionized water. Both stock solutions were filter-sterilized using 0.2 μm pore size cellulose-acetate filters. 2.5 mL of the sterile 10 mg/mL Ca^2+ stock and 1.25 mL of the sterile 10 mg/mL Mg^2+ stock solutions were added per 1 L of autoclaved BHI medium to obtain 25 mg/L Ca^2+ and 12.5 mg/L Mg^2+ ions, respectively.
(§3) General Assay Protocol: Stock bacterial cultures were streaked onto BHI agar plates and grown overnight at 37° C. Fresh aliquots of broth were inoculated with single bacterial colonies and the cultures were grown overnight at 37° C. with shaking (240 rpm) in cation adjusted BHI media. The following morning, the overnight cultures were sub-cultured (1:5 dilution) into fresh aliquots of cation adjusted BHI media and grown at 37° C. for 1-2 hours with shaking. After 2 h, cultures were diluted into fresh media to achieve final OD600 readings of 0.017. Aliquots of these diluted cultures (30 μL) were added to clear, flat-bottom, 384-well polystyrene plates that were stamped with 0.5 μL of test compounds in 20 μL media. […] Plates were sealed with “Breathe Easy” oxygen permeable membranes (Diversified Biotech) and left to incubate at 37° C. without shaking (stagnant assay). OD600 nm readings were taken at either 6-8 h (S. aureus, MRSA, K. pneumonia, E. cloacae, and P. aeruginosa) or 24 h (E. faecium and A. baumannii). A second set of baseline control plates were prepared analogously, but without any bacteria added, to correct for possible compound absorbance and/or precipitation. Plates were then read at 600 nm using a Molecular Devices SpectraMax Plus384 microplate reader. […] Results presented represent the averages of EC50 values obtained from at quadriplicate (duplicate of duplicate) replicates.

[3] = tested on: Methicillin resistant S. aureus (MRSA) (ATCC BAA-44); assay: Bacterial proliferation assay, MRSA; assay type: cell-based, Staphylococcus aureus; details: Staphylococcus aureus
From the text: as §1, §2, §3

[4] = tested on: Enterobacter cloacae (ATCC 13047); assay: Bacterial proliferation assay, E. cloacae; assay type: cell-based
From the text: as §1, §2, §3

[5] = log of IC50 (μM scale), with standard deviation, read-out: log(IC50) Native MDH Reporter (converted)
[6] = read-out: Biochemical Assay IC50 Native MDH Reporter
[7] = ATCC25923, OD600 at 6-8 h, read-out: Bacterial Proliferation EC50 S. aureus Sensitive
[8] = ATCC25923, log of EC50 (μM scale), with standard deviation, read-out: log(EC50) Bacterial Proliferation Assay S. aureus Sensitive (converted)
[9] = MRSA, log of EC50 (μM scale), with standard deviation, read-out: log(EC50) Bacterial Proliferation Assay S. aureus Resistant (converted)
[10] = ATCC13047, OD600 at 6-8 h, read-out: Bacterial Proliferation EC50 E. cloacae
[11] = ATCC13047, log of EC50 (μM scale), with standard deviation, read-out: log(EC50) Bacterial Proliferation Assay E. cloacae (converted)
[12] = MRSA, OD600 at 6-8 h, read-out: Bacterial Proliferation EC50 S. aureus Resistant
[13] = ATCC25923, read-out: Bacterial Proliferation EC50 S. aureus Sensitive
[14] = ATCC25923, read-out: S. aureus Proliferation & Biofilm Assay EC50 Planktonic Growth
[15] = ATCC25923, read-out: log(EC50) Bacterial Proliferation Assay S. aureus Sensitive (converted)
[16] = read-out: Bacterial Proliferation EC50 S. aureus Resistant
[17] = read-out: log(EC50) Bacterial Proliferation Assay S. aureus Resistant (converted)
[18] = ATCC13047, read-out: Bacterial Proliferation EC50 E. cloacae
[19] = ATCC13047, read-out: log(EC50) Bacterial Proliferation Assay E. cloacae (converted)

SMILES	IC50 [1, 5] [µM]	IC50 [1, 6] [µM]	EC50 [2, 7] [µM]	EC50 [2, 8] [µM]	EC50 [3, 9] [µM]	EC50 [4, 10] [µM]	EC50 [4, 11] [µM]	EC50 [3, 12] [µM]	EC50 [2, 13] [µM]	EC50 [2, 14] [µM]	EC50 [2, 15] [µM]	EC50 [3, 16] [µM]	EC50 [3, 17] [µM]	EC50 [4, 18] [µM]	EC50 [4, 19] [µM]	inhibition of native MDH enzymatic activity (in words) ([1]; false-positive counter-screen)	IC50 ([1]; Biochemical Assay IC50 Native MDH Reporter) [µM]	IC50 ([1]; log(IC50) Native MDH Reporter, log of IC50 (μM scale), with standard deviation) [µM]
COc1c(Br)cccc1C(=O)Nc1ccccc1 [Compound 42, 3-Bromo-2-methoxy-N-phenylbenzamide]	> 63.1	> 63	> 100	> 100	> 100	> 100	> 100	–	–	–	–	–	–	–	–	–	–	–
O=C(Nc1ccc(Sc2nc3ccccc3s2)c(Cl)c1)c1cc(Br)cc(Br)c1 [Compound 17, N-(4-(Benzo[d]thiazol-2-ylthio)-3-chlorophenyl)-3,5-dibromobenzamide]	> 63.1	> 63	> 100	> 100	> 100	> 100	> 100	–	–	–	–	–	–	–	–	–	–	–
O=C(Nc1cccc(Cl)c1)c1cccc(Br)c1 [Compound 24, 3-Bromo-N-(3-chlorophenyl)benzamide]	> 63.1	> 63	47	46.8	67.6	> 100	> 100	68	–	–	–	–	–	–	–	–	–	–
O=C(Nc1cccc(Cl)c1)c1ccccc1 [Compound 25, N-(3-Chlorophenyl)benzamide]	> 63.1	> 63	> 100	> 100	> 100	> 100	> 100	–	–	–	–	–	–	–	–	–	–	–
COc1c(Br)cc(Br)cc1C(=O)Nc1cccc(Cl)c1 [Compound 37, 3,5-Dibromo-N-(3-chlorophenyl)-2-methoxybenzamide]	> 63.1	> 63	46	45.7	> 100	> 100	> 100	> 100	–	–	–	–	–	–	–	–	–	–
O=C(Nc1cccc(Cl)c1)c1cc(Br)ccc1O [Compound 11, 5-Bromo-N-(3-chlorophenyl)-2-hydroxybenzamide]	> 63.1	> 63	–	–	–	–	–	–	0.46	0.46	0.457	0.53	0.537	> 100	> 100	–	–	–
O=C(Nc1cccc(Cl)c1)c1cc(Br)cc(Br)c1O [Compound 9, 3,5-Dibromo-N-(3-chlorophenyl)-2-hydroxybenzamide]	25.1	27	–	–	–	–	–	–	0.66	–	0.661	1.1	1.1	78	77.6	–	–	–
O=C(Nc1ccc(Sc2nc3ccccc3s2)cc1)c1cc(Br)ccc1O [Compound 7, N-(4-(Benzo[d]thiazol-2-ylthio)phenyl)-5-bromo-2-hydroxybenzamide]	> 63.1	> 63	–	–	–	–	–	–	0.12	–	0.12	0.14	0.141	> 100	> 100	inactive against the reporter enzymes	–	–
COc1ccccc1C(=O)Nc1ccc(Sc2nc3ccccc3s2)c(Cl)c1 [Compound 32, N-(4-(Benzo[d]thiazol-2-ylthio)-3-chlorophenyl)-2-methoxybenzamide]	> 63.1	> 63	> 100	> 100	> 100	> 100	> 100	–	–	–	–	–	–	–	–	–	–	–
O=C(Nc1ccc(Sc2nc3ccccc3s2)c(Cl)c1)c1ccccc1 [Compound 19, N-(4-(Benzo[d]thiazol-2-ylthio)-3-chlorophenyl)benzamide]	> 63.1	> 63	43	42.7	> 100	> 100	> 100	> 100	–	–	–	–	–	–	–	–	–	–
CN[C@H](CC(C)C)C(=O)N[C@H]1C(=O)N[C@@H](CC(N)=O)C(=O)N[C@H]2C(=O)N[C@H]3C(=O)N[C@H](C(=O)N[C@H](C(=O)O)c4cc(O)cc(O)c4-c4cc3ccc4O)[C@H](O)c3ccc(c(Cl)c3)Oc3cc2cc(c3O[C@@H]2O[C@H](CO)[C@@H](O)[C@H](O)[C@H]2O[C@H]2C[C@](C)(N)[C@H](O)[C@H](C)O2)Oc2ccc(cc2Cl)[C@H]1O [Vancomycin, vancomycin, reference compound]	–	–	–	–	–	–	–	–	0.67	0.67	0.661	0.52	0.513	> 100	> 100	–	> 63	> 63.1
O=C(Nc1cccc(Cl)c1)c1ccccc1O [Compound 12, N-(3-Chlorophenyl)-2-hydroxybenzamide]	> 63.1	> 63	3.1	3.09	4.17	> 100	> 100	4.2	–	–	–	–	–	–	–	–	–	–
O=C(Nc1ccc(Sc2nc3ccccc3s2)c(Cl)c1)c1ccccc1O [Compound 4, N-(4-(Benzo[d]thiazol-2-ylthio)-3-chlorophenyl)-2-hydroxybenzamide]	> 63.1	> 63	0.31	0.309	0.447	> 100	> 100	0.45	–	–	–	–	–	–	–	–	–	–
O=C(Nc1ccc(Sc2nc3ccccc3s2)cc1)c1cccc(Br)c1 [Compound 21, N-(4-(Benzo[d]thiazol-2-ylthio)phenyl)-3-bromobenzamide]	> 63.1	> 63	> 100	> 100	> 100	> 100	> 100	–	–	–	–	–	–	–	–	–	–	–
O=C(Nc1cccc(Cl)c1)c1cccc(Br)c1O [Compound 10, 3-Bromo-N-(3-chlorophenyl)-2-hydroxybenzamide]	> 63.1	–	1.3	1.32	2	> 100	> 100	2	–	–	–	–	–	–	–	–	–	–
